Laboratory results reported in paper PMC10428205, “Cytotoxicity of Ruthenium(II) Arene Complexes Containing Functionalized Ferrocenyl β-Diketonate Ligands” (Organometallics, 2023).
Read-outs that look alike come from different tables or passages of the source.

Tests used:
MIA PaCa-2 [1] = format: cell-based
Description: (§1) LogP = Log ( [C]final ) Eqn1
(§2) 96 h Chemosensitivity Studies
(§3) In vitro chemosensitivity tests were performed at both the University of Huddersfield and the Institute of Cancer Therapeutics, Bradford, in a sterile Class II Biological Safety Cabinet fitted with a HEPA filtered laminar airflow.
Cellular assays were conducted against human pancreatic carcinoma (MIA PaCa-2), human colorectal carcinoma p53-wildtype (HCT116 p53+/+), and human non-cancerous epithelial retinal cells (ARPE-19). […]
were obtained from the American Type Culture Collection and provided by the University of Huddersfield. All cell lines were routinely maintained as monolayer cultures in appropriate complete medium and maintained in either […]
T-25 or T-75 flasks at 37 °C and 5% CO2.
10% foetal calf serum. All medium was supplemented with sodium pyruvate (1 mM) and L-glutamine (2 mM), and prior to chemosensitivity studies, cell monolayers were passaged using Trypsin-EDTA and diluted to a […]
cells/mL cell suspension was added to each well and incubated for 24 h at 37 °C and 5% CO2. After 24 h, 100 mL of drug dilutions (fresh 100 mM stock solutions in DMSO) in media were added to the plates and then incubated for a further 96 h at 37°C and 5% CO2 (48 h + 48 h recovery period were used for the shorter exposures with MIA PaCa-2 cells only). After 96 h, 20 mL MTT (3-(4,5-dimethylthiazol-2-yl)-2,5-diphenyltetrazolium bromide, 5 mg/mL) was added to each well and incubated for 3 h at 37 °C and 5% CO2. All solutions were then removed from the 96-well plates via pipette and […] of DMSO added to each well to dissolve the purple formazan […]
FC spectrophotometer microplate reader. Using the blank and 100% cell controls, the % cell viability was determined [(abs. of compound containing wells – abs. media wells)/(abs. 100% cell suspension well control)] and from this the % cell death (100%- % cell viability) was calculated. On a logarithmic scale, the percentage cell death was plotted against the concentration of compound, and from this the half maximal inhibitory concentration (IC50) value was determined. Each of the experiments were performed in triplicate with mean values being stated as the IC50 ± Standard Deviation (SD). […]

ARPE-19 = test: 96 h MTT chemosensitivity assay, normal cells; format: cell-based, human; details: normal retinal epithelial cells, ± SD, read-out: IC50 against ARPE-19
Description: as §1, §2, §3
(§4) Cellular assays were conducted against human pancreatic carcinoma (MIA PaCa-2), human colorectal carcinoma p53-wildtype (HCT116 p53+/+), and human non-cancerous epithelial retinal cells (ARPE-19). The ARPE-19 cells were obtained from the American Type Culture Collection and provided by the University of Huddersfield. All cell lines were routinely maintained as monolayer cultures in appropriate complete medium and maintained in either T-25 or T-75 flasks at 37 °C and 5% CO2. MIA PaCa-2 and ARPE-19 cells were cultured in high glucose DMEM-F12 medium containing 10% foetal calf serum, and HCT116 p53+/+ was cultured in RPMI 1640 supplemented with 10% foetal calf serum. All medium was supplemented with sodium pyruvate (1 mM) and L-glutamine (2 mM), and prior to chemosensitivity studies, cell monolayers were passaged using Trypsin-EDTA and diluted to a concentration of 1 x 10^4 cells/mL. All assays were conducted using 96-well plates, in which […] of the 1 x 10^4 cells/mL cell suspension was added to each well and incubated for 24 h at 37 °C and 5% CO2. […] After mixing well, the absorbance of each well was measured at 540 nm using a ThermoFisher Multiskan FC spectrophotometer microplate reader. Using the blank and 100% cell controls, the % cell viability was determined [(abs. of compound containing wells – abs. media wells)/(abs. 100% cell suspension well control)] and from this the % cell death (100%- % cell viability) was calculated. On a logarithmic scale, the percentage cell death was plotted against the concentration of compound, and from this the half maximal inhibitory concentration (IC50) value was determined. […]

MIA PaCa-2 [2] = test: Chemosensitivity under hypoxic conditions (0.1% O2, 96 h MTT); format: cell-based, human
Description: as §1, §2, §3, §4

Cyclic voltammetry = details: for E0′ (Fc*/Fc*+): 0.1 M TBAPF6 in acetonitrile, Fc/Fc+ = 0.40 V internal standard; for E0′ (Fc*/Fc*+) / EP Red: vs SCE; for EP Red: irreversible reduction; for E0’ (Fc*/Fc*+) at 0.05 V/s: scan speed 0.05 V/s; for E0’ (Fc*/Fc*+) at 0.10 V/s: scan speed 0.10 V/s; for E0’ (Fc*/Fc*+) at 0.25 V/s: scan speed 0.25 V/s
[3] = 96 h MTT, normoxic, ± SD, read-out: IC50 against MIA PaCa-2

IC50 (MIA PaCa-2 [1]; [3]) [µM]	IC50 (MIA PaCa-2 [1]; MIA PaCa-2, 96 h, read-out: IC50 values ± SD (Table S14)) [µM]	IC50 (MIA PaCa-2 [2]; MIA PaCa-2, 0.1% O2, 96 h MTT) [µM]	E0′ (Fc*/Fc*+) (Cyclic voltammetry) [V]	EP Red (Cyclic voltammetry)	E0’ (Fc*/Fc*+) at 0.05 V/s (Cyclic voltammetry) [V]	E0’ (Fc*/Fc*+) at 0.10 V/s (Cyclic voltammetry) [V]	E0’ (Fc*/Fc*+) at 0.25 V/s (Cyclic voltammetry) [V]	Structure (SMILES)	Selectivity index (SI), IC50 ARPE-19 / IC50 MIA PaCa-2 (MIA PaCa-2 [1]; 96 h, * = minimum value as at least one IC50 > 100)	IC50 (ARPE-19) [µM]	fold loss of activity from normoxic to hypoxic conditions (MIA PaCa-2 [2]; MIA PaCa-2, 21% vs 0.1% O2) [fold]
3.6 ± 0.7	3.6 ± 0.7	> 50	–	–	–	–	–	[NH2][Pt]([NH2])([Cl])[Cl] [CDDP, cisplatin, reference compound]	1.7	6 ± 1	> 14
38.7 ± 0.8	–	–	0.63	–1.73 V	0.63	0.63	0.63	O=C(C=C(O)c1ccccc1)[c-]1cccc1.[Fe+2].c1cc[cH-]c1 [Complex L2]	–	–	–
59 ± 2	–	–	0.63	–1.98 V	0.63	0.62	0.63	CC(O)=CC(=O)[c-]1cccc1.[Fe+2].c1cc[cH-]c1 [Complex L1]	–	–	–
17 ± 1	–	–	0.71	–1.42 V	0.71	0.71	0.71	O=C(C=C(O)C(F)(F)F)[c-]1cccc1.[Fe+2].c1cc[cH-]c1 [Complex L7]	–	–	–
